Counter-ions that a name gives are not always drawn.
Assays:
PDE4 (cAMP-specific) = PDE4 (cAMP-specific) (Homo sapiens, UniProt Q07343); experiment: Inhibition of PDE4 activity, Method A (radioactive cAMP hydrolysis, cytosol of human PMNL); format: biochemical; conditions: cAMP substrate, 1 μM motapizone
PDE3 (cGMP-inhibited) = molecular target: T1, PDE3 (cGMP-inhibited) (Homo sapiens, UniProt Q14432); experiment: Inhibition of PDE3 activity, Method A (homogenates of human platelets); format: biochemical
T1 construct: investigated in homogenates of human platelets; from tissue; host or cells: homogenates of human platelets
T1 sequence (Q14432 whole entry): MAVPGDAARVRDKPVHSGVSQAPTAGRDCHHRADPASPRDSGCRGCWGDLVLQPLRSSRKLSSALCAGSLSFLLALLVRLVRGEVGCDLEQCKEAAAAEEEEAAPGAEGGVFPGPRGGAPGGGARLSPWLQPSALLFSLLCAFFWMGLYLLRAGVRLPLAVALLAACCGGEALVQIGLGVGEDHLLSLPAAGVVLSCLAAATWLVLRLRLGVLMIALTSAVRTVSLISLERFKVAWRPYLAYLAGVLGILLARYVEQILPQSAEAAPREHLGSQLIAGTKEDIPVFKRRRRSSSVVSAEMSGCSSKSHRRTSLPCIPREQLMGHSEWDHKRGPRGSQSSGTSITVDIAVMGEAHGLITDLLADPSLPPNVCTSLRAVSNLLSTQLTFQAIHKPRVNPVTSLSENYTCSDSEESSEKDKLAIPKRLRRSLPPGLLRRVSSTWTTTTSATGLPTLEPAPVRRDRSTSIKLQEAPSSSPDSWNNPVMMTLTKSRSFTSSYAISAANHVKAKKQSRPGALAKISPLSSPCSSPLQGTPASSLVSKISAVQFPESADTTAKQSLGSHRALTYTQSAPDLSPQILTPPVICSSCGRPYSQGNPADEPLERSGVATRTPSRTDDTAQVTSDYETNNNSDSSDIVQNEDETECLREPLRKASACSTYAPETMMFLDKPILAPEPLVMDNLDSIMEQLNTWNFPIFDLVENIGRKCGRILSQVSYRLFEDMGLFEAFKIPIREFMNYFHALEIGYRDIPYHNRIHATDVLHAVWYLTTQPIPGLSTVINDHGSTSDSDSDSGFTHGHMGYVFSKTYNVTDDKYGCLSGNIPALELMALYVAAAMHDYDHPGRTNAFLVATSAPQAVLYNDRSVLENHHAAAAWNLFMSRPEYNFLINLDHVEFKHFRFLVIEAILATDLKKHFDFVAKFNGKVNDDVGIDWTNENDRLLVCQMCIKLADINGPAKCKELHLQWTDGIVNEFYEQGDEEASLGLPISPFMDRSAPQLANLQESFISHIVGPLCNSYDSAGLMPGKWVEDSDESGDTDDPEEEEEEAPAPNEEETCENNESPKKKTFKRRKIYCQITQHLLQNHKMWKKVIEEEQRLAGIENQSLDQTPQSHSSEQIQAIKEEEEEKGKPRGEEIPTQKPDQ
Method: The PDE activity was determined according to Thompson et al. (Adv Cycl Nucl Res 10: 69-92, 1979) with some modifications (Bauer and Schwabe, Naunyn-Schmiedeberg's Arch Pharmacol 311: 193-198, 1980). The test samples contained 20 mM Tris (pH 7.4), 5 mM MgCl2, 0.5 μM cAMP or cGMP, [^3H]cAMP or [^3H]cGMP (about 30 000 cpm/sample), the PDE isoenzyme-specific additives described in greater detail below, the indicated concentrations of inhibitor and an aliquot of the enzyme solution in a total sample volume of 200 μl. Dilution series of the compounds according to the invention were prepared in DMSO and further diluted in the samples [1:100 (v/v)], to give the desired end concentration of the inhibitors at a DMSO concentration of 1% (v/v), which for its part has only a minute effect on PDE activity.
After preincubation at 37° C. for 5 minutes, the reaction was started by addition of the substrate (cAMP or cGMP). The samples were incubated at 37° C. for a further 15 min. The reaction was terminated by addition of 50 μl 0.2 N HCl. After cooling on ice for 10 minutes and addition of 25 μg 5′-nucleotidase (snake venom from Crotalus atrox), the mixture was again incubated at 37° C. for 10 mih and the samples were then applied to QAE Sephadex A-25 columns (sample volume 1 ml). The columns were eluted with 2 ml of 30 mM ammonium formate (pH 6.0). The radioactivity of the eluate was measured and corrected by the corresponding blank values (measured in the presence of denatured protein); the blank values were less than 5% of the total radioactivity. In no case did the proportion of hydrolyzed nucleotide exceed 30% of the original substrate concentration.
PDE3 (cGMP-inhibited) was investigated in homogenates of human platelets (see Schudt et al., Biochem Pharmacol 1991: 42, 153-162) using cAMP or cGMP as substrate.
The IC50 values were determined from the concentration-inhibition curves by nonlinear regression.

PDE3A1 = molecular target: T2, PDE3A1 (Homo sapiens, UniProt Q14432); experiment: Inhibition of recombinant PDE3A1, Method B (SPA test); format: biochemical; conditions: 0.5 μM cAMP, read-out: PDE3 Inhibition [measured as −logIC50 (mol/l)] (converted)
T2 construct: The whole ORF was subcloned into pBacPak9 (Clontech, Palo Alto) using EcoRi; made in house; host or cells: baculovirus (pBacPak9), SF21 insect cells (virus made in SF9); 1000 x g supernatant of the homogenate
T2 sequence (Q14432 whole entry): as above
Excerpt: The cDNA for PDE3A1 (GB no. U36798) was isolated in 2 steps using PCR. A 3′ terminal cDNA fragment of PDE3A1 was amplified from fat cells cDNA (Clontech, Palo Alto) using primers OZ 458 (5′-[…]-3′) and OZ 457 (5′-[…]-3′). The 5′ terminal cDNA fragment of PDE3A1 was amplified from Placenta cDNA (Clontech, Palo Alto) using primers OZ 455 (5′-[…]-3′) and OZ 456 (5′-[…]-3′). The PCR products were cloned into pCR2.1-Topo (Invitrogen, Groningen, NL) under standard conditions (the manufacturer's instructions). The 3′ fragment was cut out with HindII and cloned into the HindII site of the construct carrying the 5′ fragment. The whole ORF was subcloned into pBacPak9 (Clontech, Palo Alto) using EcoRi. Aminoacid 12 is Aspartic Acid like in sequence GB no. AJ005036, aa 69 and aa 110 are respective Serine and Glycine like in both sequences GB no. AJ005036 and GB no. M91667.
(§1) The recombinant baculovirus was prepared by means of homologous recombination in SF9 insect cells. The expression plasmids were cotransfected with Bac-N-Blue (Invitrogen, Groningen, NL) or Baculo-Gold DNA (Pharmingen, Hamburg) using a standard protocol (Pharmingen, Hamburg). Wt virus-free recombinant virus supernatants were selected using plaque assay methods. After that, high-titre virus supernatants were prepared by amplifying 3 times. PDEs were expressed in SF21 cells by infecting 2×10^6 cells/ml with an MOI (multiplicity of infection) between 1 and 10 in serum-free SF900 medium (Life Technologies, Paisley, UK). The cells were cultured at 28° C. for 48-72 hours, after which they were pelleted for 5-10 min at 1000 g and 4° C.
(§2) The SF21 insect cells were resuspended, at a concentration of approx. 10^7 cells/ml, in ice-cold (4° C.) homogenization buffer (20 mM Tris, pH 8.2, containing the following additions: 140 mM NaCl, 3.8 mM KCl, 1 mM EGTA, 1 mM MgCl2, 10 mM β-mercaptoethanol, 2 mM benzamidine, 0.4 mM Pefablock, 10 μM leupeptin, 10 μM pepstatin A, 5 μM trypsin inhibitor) and disrupted by ultrasonication. The homogenate was then centrifuged for 10 min at 1000× g and the supernatant was stored at −80° C. until subsequent use (see below). The protein content was determined by the Bradford method (BioRad, Munich) using BSA as the standard.
PDE3A1 and PDE4B2 activities were inhibited by the said compounds in a modified SPA (scintillation proximity assay) test, supplied by Amersham Biosciences (see procedural instructions “phosphodiesterase [3H]cAMP SPA enzyme assay, code TRKQ 7090”), carried out in 96-well microtitre plates (MTP's). The test volume is 100 μl and contains 20 mM Tris buffer (pH 7.4), 0.1 mg of BSA (bovine serum albumin)/ml, 5 mM Mg^2+, 0.5 μM cAMP (including about 50,000 cpm of [3H]cAMP), 1 μl of the respective substance dilution in DMSO and sufficient recombinant PDE (1000× g supernatant, see above) to ensure that 10-20% of the cAMP is converted under the said experimental conditions. […] After a preincubation of 5 min at 37° C., the reaction is started by adding the substrate (cAMP) and the assays are incubated for a further 15 min; after that, they are stopped by adding SPA beads (50 μl). […] After the beads have been sedimented (>30 min), the MTP's are analyzed in commercially available luminescence detection devices. The corresponding IC50 values of the compounds for the inhibition of PDE activities are determined from the concentration-effect curves by means of non-linear regression.

PDE4B2 = molecular target: T3, PDE4B2 (Homo sapiens, UniProt Q07343); experiment: Inhibition of recombinant PDE4B2, Method B (SPA test); format: biochemical; conditions: 0.5 μM cAMP, read-out: PDE4 Inhibition [measured as −logIC50 (mol/l)] (converted)
T3 construct: made in house; host or cells: baculovirus, SF21 insect cells (virus made in SF9); 1000 x g supernatant of the homogenate
T3 sequence (Q07343 1-564 isoform Q07343-2): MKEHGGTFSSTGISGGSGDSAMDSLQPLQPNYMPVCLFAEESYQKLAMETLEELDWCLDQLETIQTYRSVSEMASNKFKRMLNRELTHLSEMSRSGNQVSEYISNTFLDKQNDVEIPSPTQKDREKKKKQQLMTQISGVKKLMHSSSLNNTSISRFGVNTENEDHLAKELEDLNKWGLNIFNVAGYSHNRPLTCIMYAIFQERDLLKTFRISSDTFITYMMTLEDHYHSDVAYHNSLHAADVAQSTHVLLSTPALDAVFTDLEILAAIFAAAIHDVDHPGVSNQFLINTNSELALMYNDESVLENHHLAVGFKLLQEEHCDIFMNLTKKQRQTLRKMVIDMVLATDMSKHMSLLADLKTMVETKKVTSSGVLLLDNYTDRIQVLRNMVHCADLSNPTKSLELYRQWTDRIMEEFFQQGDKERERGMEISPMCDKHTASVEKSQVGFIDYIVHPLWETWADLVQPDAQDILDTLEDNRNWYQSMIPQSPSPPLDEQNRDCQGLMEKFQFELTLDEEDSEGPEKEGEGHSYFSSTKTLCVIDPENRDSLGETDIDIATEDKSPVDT
Method: The PDE4B2 (GB no. M97515) was a gift of Prof. M. Conti (Stanford University, USA). It was amplified from the original plasmid (pCMV5) via PCR with primers Rb9 (5′-[…]-3′) and Rb10 (5′-[…]-3′) and cloned into the pCR-Bac vector (Invitrogen, Groningen, NL).
as §1, §2
PDE3A1 and PDE4B2 activities were inhibited by the said compounds in a modified SPA (scintillation proximity assay) test, supplied by Amersham Biosciences (see procedural instructions “phosphodiesterase [3H]cAMP SPA enzyme assay, code TRKQ 7090”), carried out in 96-well microtitre plates (MTP's). The test volume is 100 μl and contains 20 mM Tris buffer (pH 7.4), 0.1 mg of BSA (bovine serum albumin)/ml, 5 mM Mg^2+, 0.5 μM cAMP (including about 50,000 cpm of [3H]cAMP), 1 μl of the respective substance dilution in DMSO and sufficient recombinant PDE (1000× g supernatant, see above) to ensure that 10-20% of the cAMP is converted under the said experimental conditions. […] After a preincubation of 5 min at 37° C., the reaction is started by adding the substrate (cAMP) and the assays are incubated for a further 15 min; after that, they are stopped by adding SPA beads (50 μl). In accordance with the manufacturer's instructions, the SPA beads had previously been resuspended in water, but were then diluted 1:3 (v/v) in water; the diluted solution also contains 3 mM IBMX to ensure a complete PDE activity stop. After the beads have been sedimented (>30 min), the MTP's are analyzed in commercially available luminescence detection devices. The corresponding IC50 values of the compounds for the inhibition of PDE activities are determined from the concentration-effect curves by means of non-linear regression.

Sequence of PDE4 (cAMP-specific) (Q07343 whole entry): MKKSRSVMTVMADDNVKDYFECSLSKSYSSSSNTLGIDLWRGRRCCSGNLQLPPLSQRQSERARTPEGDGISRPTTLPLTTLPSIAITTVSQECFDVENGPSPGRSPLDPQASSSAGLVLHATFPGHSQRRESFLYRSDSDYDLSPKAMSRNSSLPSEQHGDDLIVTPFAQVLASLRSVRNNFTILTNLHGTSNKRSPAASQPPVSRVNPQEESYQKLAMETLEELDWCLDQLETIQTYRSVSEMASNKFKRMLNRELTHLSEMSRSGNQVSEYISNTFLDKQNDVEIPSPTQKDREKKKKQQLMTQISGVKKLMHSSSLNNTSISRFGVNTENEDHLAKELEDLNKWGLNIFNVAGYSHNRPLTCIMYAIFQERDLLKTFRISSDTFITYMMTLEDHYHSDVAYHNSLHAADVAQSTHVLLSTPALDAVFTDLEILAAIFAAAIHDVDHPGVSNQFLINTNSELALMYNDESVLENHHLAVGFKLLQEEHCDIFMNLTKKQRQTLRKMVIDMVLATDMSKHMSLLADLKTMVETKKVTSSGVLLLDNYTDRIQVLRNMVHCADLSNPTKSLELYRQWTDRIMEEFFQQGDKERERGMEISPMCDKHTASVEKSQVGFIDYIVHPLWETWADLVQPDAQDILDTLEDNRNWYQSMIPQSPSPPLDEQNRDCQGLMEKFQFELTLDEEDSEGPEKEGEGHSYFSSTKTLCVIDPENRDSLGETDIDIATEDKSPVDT

In the case of `COc1ccc(OC)c(S(=O)(=O)N2CCC(N3N=C(c4ccc(OC)c(OC)c4)CCC3=O)CC2)c1` [Compound 17], the “PDE4 Inhibition [measured as −logIC50 (mol/l)]” value (PDE4 (cAMP-specific)) is reported as 7.8 -log(mol/l) and the “PDE3 Inhibition [measured as −logIC50 (mol/l)]” value (PDE3 (cGMP-inhibited)) is reported as 6.8 −log(mol/l) (pIC50).

For `COc1ccc(C2=NN(C3CCN(S(=O)(=O)c4cccs4)CC3)C(=O)CC2)cc1OC` [Compound 19, 6-(3,4-Dimethoxy-phenyl)-2-[1-(thiophene-2-sulfonyl)-piperidin-4-yl]-45-dihydro-2H-pyridazin-3-one], the “PDE4 Inhibition [measured as −logIC50 (mol/l)]” value (PDE4 (cAMP-specific)) was 8.3 -log(mol/l) and the “PDE3 Inhibition [measured as −logIC50 (mol/l)]” value (PDE3 (cGMP-inhibited)) was 6.9 −log(mol/l) (pIC50).

`COc1ccc(C2=NN(C3CCN(C(=O)c4ccccc4)CC3)C(=O)CC2)cc1OC` [Compound 23, 6-(3,4-Dimethoxy-phenyl)-2-[1-(1-phenyl-methanoyl)-piperidin-4-yl]-4,5-dihydro-2H-pyridazin-3-one] gave a melting point of 152 to 154 °C, an IC50 (PDE3A1) of 0.126 µM and an IC50 (PDE4B2) of 0.00794 µM.

`COc1ccc(C2=NN(C3CCN(C(=O)c4c(Cl)cc(Cl)cc4Cl)CC3)C(=O)CC2)cc1OC` [Compound 25, 6-(3,4-Dimethoxy-phenyl)-2-{1-[1-(2,4,6-trichloro-phenyl)-methanoyl]-piperidin-4-yl}-4,5-dihydro-2H-pyridazin-3-one] showed a melting point of 156 to 159 °C, an IC50 (PDE3A1) of 0.0158 µM and an IC50 (PDE4B2) of 0.00251 µM.

Compound `COc1ccc(C2=NN(C3CCN(CC(=O)N4CCN(C)CC4)CC3)C(=O)CC2)cc1OC.Cl.Cl` [Compound 28, 6-(3,4-Dimethoxy-phenyl)-2-{1-[2-(4-methyl-piperazin-1-yl)-2-oxo-ethyl]-piperidin-4-yl}-4,5-dihydro-2H-pyridazin-3-one dihydrochloride] has a melting point of 194 to 199 °C, an IC50 (PDE3A1) of over 10 µM and an IC50 (PDE4B2) of 0.02 µM.

`COc1ccc(C2=NN(C3CCN(C(=O)CN4CCN(c5ccncc5)CC4)CC3)C(=O)CC2)cc1OC` [Compound 29, 6-(3,4-Dimethoxy-phenyl)-2-{1-[2-(4-pyridin-4-yl-piperazin-1-yl)-ethanoyl]-piperidin-4-yl}-4,5-dihydro-2H-pyridazin-3-one dihydrochloride] gave an IC50 (PDE3A1) of 3.16 µM and an IC50 (PDE4B2) of 0.0158 µM.

`COc1ccc(C2=NN(C3CCN(C(=O)CN4CCN(C(c5ccccc5)c5ccccc5)CC4)CC3)C(=O)CC2)cc1OC.Cl.Cl` [Compound 31, 6-(3,4-Dimethoxy-phenyl)-2-(1-{2-[4-(1,1-diphenyl-methyl)-piperazin-1-yl]-ethanoyl}-piperidin-4-yl)-4,5-dihydro-2H-pyridazin-3-one dihydrochloride] showed a melting point of 126 to 127 °C, an IC50 (PDE3A1) of 3.98 µM and an IC50 (PDE4B2) of 0.0398 µM.
